33 molecules from US20250230171A1 (MOMA Therapeutics, Inc., priority 2023, published 2025) can be followed below.

biotinylated Avi-POLθ[2-894], sequence (O75417 2-894): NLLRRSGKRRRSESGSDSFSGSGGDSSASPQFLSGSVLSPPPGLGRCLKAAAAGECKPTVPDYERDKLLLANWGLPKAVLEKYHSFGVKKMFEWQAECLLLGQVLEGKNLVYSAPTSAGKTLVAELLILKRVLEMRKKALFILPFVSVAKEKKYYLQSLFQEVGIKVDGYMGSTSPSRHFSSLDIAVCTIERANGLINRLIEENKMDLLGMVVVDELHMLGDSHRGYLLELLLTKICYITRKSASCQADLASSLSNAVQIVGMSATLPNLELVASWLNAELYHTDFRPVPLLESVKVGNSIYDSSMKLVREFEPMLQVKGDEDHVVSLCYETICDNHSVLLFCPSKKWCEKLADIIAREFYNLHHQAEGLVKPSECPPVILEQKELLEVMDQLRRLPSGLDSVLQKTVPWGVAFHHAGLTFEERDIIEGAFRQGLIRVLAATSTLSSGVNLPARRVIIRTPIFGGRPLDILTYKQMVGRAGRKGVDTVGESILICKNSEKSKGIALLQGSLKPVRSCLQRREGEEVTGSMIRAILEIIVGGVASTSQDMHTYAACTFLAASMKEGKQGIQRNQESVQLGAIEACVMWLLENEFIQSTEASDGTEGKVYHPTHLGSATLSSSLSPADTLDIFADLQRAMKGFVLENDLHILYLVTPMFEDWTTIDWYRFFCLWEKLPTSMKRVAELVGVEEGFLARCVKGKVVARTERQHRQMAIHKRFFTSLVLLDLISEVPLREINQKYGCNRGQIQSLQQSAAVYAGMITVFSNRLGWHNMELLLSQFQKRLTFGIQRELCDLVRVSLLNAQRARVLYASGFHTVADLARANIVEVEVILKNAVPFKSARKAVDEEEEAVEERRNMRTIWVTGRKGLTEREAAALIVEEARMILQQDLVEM

The first assay has as its target biotinylated Avi-POLθ[2-894] (Homo sapiens (Human), UniProt O75417). The assay is described as follows: POLθ ATPase assay (ADP-Glo). The settings on record: POLθ ATPase, ADP-Glo; n=2; read-out: Biochemical ATPase ADPGlo IC50. The protocol: In some embodiments, the ATPase assay a compound of the present disclosure is combined with biotinylated Avi-POLθ[2-894], a 50 nucleotide poly-thymine repeat single-stranded DNA, and ATP in buffer. In some embodiments, the mixture is incubated and ADP-Glo Reagent added, followed by a subsequent incubation. In some embodiments, a Kinase Detection Reagent may be added, followed by a third incubation. In some embodiments, the activity is measured via luminescence signal (e.g., measured with the EnVision multimode plate reader). POLθ-mediated ATP hydrolysis was measured using the ADP-Glo Kinase Assay (Promega Corporation, Madison, WI). Reactions were performed in white 384-well small-volume microplates (Greiner Bio-One, Frickenhausen, Germany) using a total volume of 15 μL. The ATPase reaction consisted of 1 nM biotinylated Avi-POLθ[2-894], 5 nM of a 50 nucleotide poly-thymine repeat single-stranded DNA (PolyT(50) ssDNA), and 100 μM ATP in 5 μL of assay buffer (50 mM Tris, pH 7.5, 80 mM KCl, 10 MgCl2, 1 mM DTT, 5% glycerol, 0.01% BSA, 0.01% Tween-20). Inhibition of POLΘATPase activity was determined by preparing 11-point serial dilutions of the test compounds in 100% DMSO, then transferring 30 nL of the compounds into the ATPase reaction using an Echo acoustic liquid handler (Beckman Coulter, Brea, CA). DMSO-treated wells containing either all of the reaction components (1 nM biotinylated Avi-POLθ[2-894], 5 nM PolyT(50) ssDNA, 100 μM ATP) or with assay buffer substituted for the biotinylated Avi-POLθ[2-894](0 nM biotinylated Avi-POLθ[2-894], 5 nM PolyT(50) ssDNA, 100 μM ATP) were used to define the maximum and minimum response in the assay. Following a one-hour incubation at ambient temperature, 5 μL of ADP-Glo Reagent was added to the ATPase reaction, and this mixture was allowed to incubate at ambient temperature for an additional hour. Lastly, 5 μL of Kinase Detection Reagent was added, followed by a third one-hour incubation at ambient temperature. […] Luminescence signal was measured using the EnVision multimode plate reader (Perkin Elmer. Waltham. MA). […] Non-linear regression analysis using the four-parameter logistic equation was conducted on the percent activity values of the compound dose-responses, yielding the AC50 value for each compound. Genedata Screener (Genedata. Basel, Switzerland) was used for the data analysis.
With `COc1cnc(Cl)cc1-c1cc(C)ncc1C(=O)Nc1nc2c(s1)CN(C(=O)c1ccc(C(F)(F)F)nc1OC)C2C` (single isomer, unassigned) [Example 1037, (R or S)-2′-chloro-5′-methoxy-N-(5-(2-methoxy-6-(trifluoromethyl)nicotinoyl)-4-methyl-5,6-dihydro-4H-pyrrolo[3,4-d]thiazol-2-y])-6-methyl-[4,4′-bipyridine]-3-carboxamide], the IC50 was 15 to 50 nM.
Turning to `COc1cnc(Cl)cc1-c1cc(C)ncc1C(=O)Nc1nc2c(s1)C(C)N(C(=O)c1ccc(C(F)(F)F)nc1OC)C2` (single isomer, unassigned) [Example 1047, (S or R)-2′-chloro-5′-methoxy-N-(5-(2-methoxy-6-(trifluoromethyl)nicotinoyl)-6-methyl-5,6-dihydro-4H-pyrrolo[3,4-d]thiazol-2-yl)-6-methyl-[4,4′-bipyridine]-3-carboxamide], the IC50 was in the range of 150 to 900 nM.

The same assay, now with this note: n=2; read-out: Biochemical ATPase ADPGlo IC50.
On to `COc1ccc(C#N)cc1-c1cc(C)ncc1C(=O)Nc1nc2c(s1)CN(C(=O)C1CC1OC)CC2` (mixture of isomers) [Example 214, 4-(5-cyano-2-methoxyphenyl)-N-(5-(2-methoxycyclopropane-1-carbonyl)-4,5,6,7-tetrahydrothiazolo[5,4-c]pyridin-2-yl)-6-methylnicotinamide Mixture of isomers], for which the IC50 fell in the range of 150 to 900 nM.
On the same count and under the same terms, under `COc1cnc(Cl)cc1-c1cc(C)ncc1C(=O)Nc1nc2c(s1)CN(C(=O)c1cn(C)nc1C)C2` (racemic) stands 1 to 15 nM; under `COc1ccccc1-c1cc(C)ncc1C(=O)Nc1nc2c(s1)CN(C(=O)C1(c3ccccn3)CC1)C2` (racemic), 50 to 150 nM.
Same read-out and setting: then `COc1ccccc1-c1cc(C)ncc1C(=O)Nc1nc2c(s1)CC(c1ccc(Cl)cc1)CC2` (racemic), with 150 to 900 nM.
Still for that read-out and setting: then `COc1ccccc1-c1cc(C)ncc1C(=O)Nc1nc2c(s1)CN(C(=O)C1CCOCC1)C2` (racemic), with 50 to 150 nM; and `COc1ccccc1-c1cc(C)ncc1C(=O)Nc1nc2c(s1)CN(C(=O)C1CCCOC1)C2` (racemic), with 150 to 900 nM; and `COc1ccccc1-c1cc(C)ncc1C(=O)Nc1nc2c(s1)CN(C(=O)C1CCCO1)C2` (racemic), with 150 to 900 nM.
In the case of `COCC1(C(=O)N2Cc3nc(NC(=O)c4cnc(C)cc4-c4ccccc4OC)sc3C2)CCC1` (racemic), the IC50 was 150 to 900 nM.
Regarding `COc1ccccc1-c1cc(C)ncc1C(=O)Nc1nc2c(s1)CN(C(=O)C1CC(=O)N1)C2` (racemic), the IC50 fell in the range of 150 to 900 nM.
The same measure, in the same setting: then `COc1ccccc1-c1cc(C)ncc1C(=O)Nc1nc2c(s1)CN(c1ccccn1)C2` (racemic), with at least 900 nM.
The same measure, in the same setting: under `COc1cnc(Cl)cc1-c1cc(C)ncc1C(=O)Nc1nc2c(s1)CN(C(=O)C1CCC(OC)C1)C2` (racemic) [Example 101, (Racemic)-2′-chloro-5′-methoxy-N-(5-(3-methoxycyclopentane-1-carbonyl)-5,6-dihydro-4H-pyrrolo[3,4-d]thiazol-2-yl)-6-methyl-[4,4′-bipyridine]-3-carboxamide] stands 1 to 15 nM; under `COc1cnc(Cl)cc1-c1cc(C)ncc1C(=O)Nc1nc2c(s1)CN(C(=O)C1CC(OC)(C(F)(F)F)C1)C2` (racemic) [Example 103, (Racemic)-2′-chloro-5′-methoxy-N-(5-(3-methoxy-3-(trifluoromethyl)cyclobutane-1-carbonyl)-5,6-dihydro-4H-pyrrolo[3,4-d]thiazol-2-yl)-6-methyl-[4,4′-bipyridine]-3-carboxamide], 15 to 50 nM; under `COc1cnc(Cl)cc1-c1cc(C)ncc1C(=O)Nc1nc2c(s1)CC(N1CCC(O)CC1)CC2` (racemic) [Example 109, (Racemic)-2′-chloro-N-(6-(4-hydroxypiperidin-1-yl)-4,5,6,7-tetrahydrobenzo[d]thiazol-2-yl)-5′-methoxy-6-methyl-[4,4′-bipyridine]-3-carboxamide], 150 to 900 nM.
Turning to `COc1cnc(Cl)cc1-c1cc(C)ncc1C(=O)Nc1nc2c(s1)CC(N1CCCCC1)CC2` (racemic) [Example 110], the IC50 is at least 900 nM.
Still for that read-out and setting: then `COc1cnc(Cl)cc1-c1cc(C)ncc1C(=O)Nc1nc2c(s1)CC(NC1CCC1)CC2` (racemic) [Example 134], with 150 to 900 nM; and `COc1cnc(Cl)cc1-c1cc(C)ncc1C(=O)Nc1nc2c(s1)CN(C(=O)c1ccnn1C(F)F)C2` (racemic) [Example 137], with 1 to 15 nM; and `COc1cnc(Cl)cc1-c1cc(C)ncc1C(=O)Nc1nc2c(s1)C[C@H](NC(=O)[C@H]1C[C@@H](O)C1)CC2` (racemic) [Example 144], with 150 to 900 nM.
On the same count and under the same terms, then `COc1ccc(C#N)cc1-c1cc(C)ncc1C(=O)Nc1nc2c(s1)CN(C1CC1)C2` (racemic) [Example 165], with 50 to 150 nM; and `COc1ccc(C#N)cc1-c1cc(C)ncc1C(=O)Nc1nc2c(s1)CN(C(=O)c1ccncc1)CC2` (racemic) [Example 213], with 150 to 900 nM; and `COc1ccc(C#N)cc1-c1cc(C)ncc1C(=O)Nc1nc2c(s1)CN(S(=O)(=O)C1CCCOC1)C2` (racemic) [Example 233], with 15 to 50 nM.
With `COc1ccc(C#N)cc1-c1cc(C)ncc1C(=O)Nc1nc2c(s1)CN(C(=O)C1COC1)CC2` (single isomer, unassigned), the IC50 fell in the range of 150 to 900 nM.
As to `COc1ccc(C#N)cc1-c1cc(C)ncc1C(=O)Nc1nc2c(s1)CN(C(=O)C1CCCC1)CC2` (single isomer, unassigned), the IC50 lay in the range of 150 to 900 nM.
Same read-out and setting: under `COc1cnc(Cl)cc1-c1cc(C)ncc1C(=O)Nc1nc2c(s1)C[C@H](C(=O)NC1CCC1)CC2` (single isomer, unassigned) [Example 27, (R or S)-2-(2′-chloro-5′-methoxy-6-methyl-[4,4′-bipyridine]-3-carboxamido)-N-cyclobutyl-4,5,6,7-tetrahydrobenzo[d]thiazole-6-carboxamide] stands 15 to 50 nM.
Still for that read-out and setting: then `COc1cnc(Cl)cc1-c1cc(C)ncc1C(=O)Nc1nc2c(s1)C[C@@H](C(=O)NC1CCC1)CC2` (single isomer, unassigned) [Example 29, (S or R)-2-(2′-chloro-5′-methoxy-6-methyl-[4,4′-bipyridine]-3-carboxamido)-N-cyclobutyl-4,5,6,7-tetrahydrobenzo[d]thiazole-6-carboxamide], with 150 to 900 nM.
On the same count and under the same terms, then `COc1cnc(Cl)cc1-c1cc(C)ncc1C(=O)Nc1nc2c(s1)CC(C(=O)NC1CC1)CC2` (single isomer, unassigned) [Example 154], with 150 to 900 nM.
On to `COc1ccc(C#N)cc1-c1cc(C)ncc1C(=O)Nc1nc2c(s1)CN(C(=O)C1CC1(F)F)CC2` (single isomer, unassigned) [Example 210], for which the IC50 was 150 to 900 nM.
The same measure, in the same setting: under `COc1ccc(C#N)cc1-c1cc(C)ncc1C(=O)Nc1nc2c(s1)CN(C(=O)C1CCCCO1)CC2` (single isomer, unassigned) [Example 215] stands at least 900 nM; under `COc1cn2cncc2cc1-c1cc(C)ncc1C(=O)Nc1nc2c(s1)CN(C(=O)[C@H]1C[C@H](OC(F)(F)F)C1)C2` [Example 22, 4-(6-methoxyimidazo[1,5-a]pyridin-7-yl)-6-methyl-N-(5-((1r,3r)-3-(trifluoromethoxy)cyclobutane-1-carbonyl)-5,6-dihydro-4H-pyrrolo[3,4-d]thiazol-2-yl)nicotinamide], 15 to 50 nM; under `COc1cnc(Cl)cc1-c1cc(C)ncc1C(=O)Nc1nc2c(s1)CN(C(=O)c1nccn1C)C2` [Example 23, 2′-chloro-5′-methoxy-6-methyl-N-(5-(1-methyl-1H-imidazole-2-carbonyl)-5,6-dihydro-4H-pyrrolo[3,4-d]thiazol-2-yl)-[4,4′-bipyridine]-3-carboxamide], 15 to 50 nM.
As to `COc1cnc(Cl)cc1-c1cc(C)ncc1C(=O)Nc1nc2c(s1)CN(C(=O)C1CN(CC(F)F)C1)C2` [Example 24, 2′-chloro-N-(5-(1-(2,2-difluoroethyl)azetidine-3-carbonyl)-5,6-dihydro-4H-pyrrolo[3,4-d]thiazol-2-yl)-5′-methoxy-6-methyl-[4,4′-bipyridine]-3-carboxamide], the IC50 was in the range of 15 to 50 nM.
Same read-out and setting: then `COc1cnc(Cl)cc1-c1cc(C)ncc1C(=O)Nc1nc2c(s1)CN(C(=O)c1cncn1C)C2` [Example 30, 2′-chloro-5′-methoxy-6-methyl-N-(5-(1-methyl-1H-imidazole-5-carbonyl)-5,6-dihydro-4H-pyrrolo[3,4-d]thiazol-2-yl)-[4,4′-bipyridine]-3-carboxamide], with 15 to 50 nM.

What is called IC50 is the midpoint of a concentration-inhibition curve.
